In ChEMBL document CHEMBL1201862, “PubChem BioAssay data set” (2004):
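96-well plates; 48 h exposure; 5 concentrations. Endpoints by linear interpolation between flanking doses. Not reached: highest tested concentration assigned. GI50 = concentration required for 50% inhibition of growth.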 The source made the active and inactive calls. No stated cut-off is given here; in the data, active = GI50 up to about 1.1 µM and inactive = higher.

How the values were obtained:
Test in all cases: DTP human tumour cell line panel, 48 h
NCI-H460 = test system: NCI-H460
U-251 = test system: U-251
HT-29 = test system: HT-29
HCT-116 = test system: HCT-116
MOLT-4 = test system: MOLT-4
IGROV-1 = test system: IGROV-1
A498 = test system: A498
TK-10 = test system: TK-10
CCRF-CEM = test system: CCRF-CEM
786-0 = test system: 786-0
NCI-H226 = test system: NCI-H226
K562 = test system: K562
Malme-3M = test system: Malme-3M
KM-20L2 = test system: KM-20L2
SK-MEL-5 = test system: SK-MEL-5
SK-MEL-28 = test system: SK-MEL-28

Measured: GI50

O=C(CCc1cc(-c2ccccc2)nc(S)n1)N(Cc1ccccc1)Cc1ccccc1
inactive: NCI-H460 > 100 µM | U-251 > 100 µM | HT-29 > 100 µM | HCT-116 > 100 µM | MOLT-4 > 100 µM | IGROV-1 > 100 µM | A498 > 100 µM | TK-10 > 100 µM | CCRF-CEM > 100 µM | 786-0 > 100 µM | NCI-H226 > 100 µM | K562 > 100 µM | Malme-3M > 100 µM | KM-20L2 > 100 µM

COc1ccc(/C=N/NC(=O)CSc2nc(-c3ccccc3)c(-c3ccccc3)[nH]2)cc1OC
inactive: NCI-H460 28.6 µM | U-251 25.6 µM | HT-29 29.8 µM | HCT-116 34.5 µM | MOLT-4 16 µM | IGROV-1 28.8 µM | A498 26.6 µM | SK-MEL-5 17.5 µM | TK-10 35.4 µM | CCRF-CEM 34.7 µM | 786-0 28.7 µM | NCI-H226 30.8 µM | Malme-3M 19.5 µM | KM-20L2 19.1 µM | SK-MEL-28 41 µM

O=C1CCC(=O)C(C(=O)CCC(=O)Nc2cccc(Cl)c2)C1 (centres undefined)
inactive: NCI-H460 > 100 µM | U-251 > 100 µM | HT-29 > 100 µM | HCT-116 > 100 µM | MOLT-4 > 100 µM | IGROV-1 > 100 µM | A498 > 100 µM | SK-MEL-5 > 100 µM | TK-10 > 100 µM | CCRF-CEM > 100 µM | 786-0 > 100 µM | NCI-H226 > 100 µM | K562 > 100 µM | Malme-3M > 100 µM | KM-20L2 71 µM

COc1ccc(C2NC3=C(CCCC3)N2)cc1
inactive: NCI-H460 45 µM | U-251 53.8 µM | HT-29 42.9 µM | HCT-116 64.9 µM | MOLT-4 59.3 µM | IGROV-1 > 100 µM | A498 79.4 µM | SK-MEL-5 27.2 µM | TK-10 > 100 µM | CCRF-CEM > 100 µM | 786-0 41.1 µM | NCI-H226 > 100 µM | Malme-3M 40.4 µM | KM-20L2 31.3 µM | SK-MEL-28 > 100 µM

Cc1c(/C=N/N=C/c2[nH]c(C(=O)OC(C)(C)C)c(C)c2C)[nH]c(C(=O)OC(C)(C)C)c1C
inactive: NCI-H460 81.5 µM | U-251 > 100 µM | HT-29 > 100 µM | HCT-116 > 100 µM | MOLT-4 > 100 µM | IGROV-1 > 100 µM | A498 > 100 µM | SK-MEL-5 > 100 µM | TK-10 > 100 µM | CCRF-CEM 70.1 µM | 786-0 50.8 µM | NCI-H226 > 100 µM | K562 59.4 µM | Malme-3M > 100 µM | KM-20L2 > 100 µM

O=C(OCc1ccccc1)N1N=NC2C3CC(OCc4ccccc4)(OCc4ccccc4)C(O3)C21 (centres undefined)
inactive: NCI-H460 39.9 µM | U-251 40.6 µM | HT-29 26 µM | MOLT-4 5.5 µM | IGROV-1 49.5 µM | A498 41.7 µM | SK-MEL-5 9.66 µM | CCRF-CEM 21.3 µM | 786-0 29.1 µM | NCI-H226 12.6 µM | K562 11 µM | Malme-3M 16.1 µM | KM-20L2 40.7 µM | SK-MEL-28 21.3 µM

Cc1cc(NS(=O)(=O)c2ccc(Nc3c4ccccc4nc4c(C(=O)N5CCN(CCOS(C)(=O)=O)CC5)cccc34)cc2)no1
inactive: NCI-H460 > 100 µM | U-251 > 100 µM | HT-29 > 100 µM | HCT-116 > 100 µM | MOLT-4 54.1 µM | IGROV-1 > 100 µM | A498 > 100 µM | SK-MEL-5 > 100 µM | TK-10 > 100 µM | CCRF-CEM 43.4 µM | 786-0 > 100 µM | NCI-H226 > 100 µM | K562 37.5 µM | Malme-3M > 100 µM | KM-20L2 > 100 µM | SK-MEL-28 > 100 µM
